ChEMBL document CHEMBL1909046, “DrugMatrix in vitro pharmacology data”
pIC50, pKi: −log10 of the molar value.

Tests used:
Leukotriene C4 synthase = biological target: T1, Leukotriene C4 synthase (Cavia porcellus, UniProt A6XA80); assay: biochemical; type: tissue-based, Lung;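 note: enzyme inhibition assay of leukotriene C4 synthase, using LTA4 as the substrate; in other assays of this panel Not Active means under 50% inhibition at 10 µM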
T1 sequence (A6XA80 whole entry): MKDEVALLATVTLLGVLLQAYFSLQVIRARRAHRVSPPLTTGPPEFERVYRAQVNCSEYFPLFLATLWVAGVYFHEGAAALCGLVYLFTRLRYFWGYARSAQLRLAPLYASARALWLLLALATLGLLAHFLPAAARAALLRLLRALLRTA

[1] = DRUGMATRIX: beta-Lactamase enzyme inhibition (substrate: Nitrocefin); parameters: species or system Bacillus cereus; conditions: Not Active = under 50% inhibition at 10 µM
[2] = DRUGMATRIX: Atrial Natriuretic Factor (ANF) radioligand binding (ligand: [125I] ANF (rat)); type: cell membranes, Cavia porcellus, Dunkin-Hartley, Adrenal gland, Membrane; conditions: Not Active = under 50% inhibition at 10 µM
[3] = biological target: cGMP-specific 3',5'-cyclic phosphodiesterase (Homo sapiens, UniProt O76074); assay: DRUGMATRIX: Phosphodiesterase PDE5 enzyme inhibition (substrate: [3H]cGMP + cGMP); type: tissue-based, Platelet; conditions: platelet; Not Active = under 50% inhibition at 10 µM
[4] = DRUGMATRIX: Serotonin (5-Hydroxytryptamine) 5-HT3 radioligand binding (ligand: [3H] GR-65630); type: cell membranes, Membrane; conditions: hek293; Not Active = under 50% inhibition at 10 µM
[5] = biological target: T2, 5-hydroxytryptamine receptor 1A (Rattus norvegicus, UniProt P19327); type: cell membranes, CHO-K1, Membrane; conditions: for IC50: cho-k1; for pIC50: read-out: IC50; for pKi: read-out: Ki; for all read-outs here: in other assays of this panel Not Active means under 50% inhibition at 10 µM
T2 sequence (P19327 whole entry): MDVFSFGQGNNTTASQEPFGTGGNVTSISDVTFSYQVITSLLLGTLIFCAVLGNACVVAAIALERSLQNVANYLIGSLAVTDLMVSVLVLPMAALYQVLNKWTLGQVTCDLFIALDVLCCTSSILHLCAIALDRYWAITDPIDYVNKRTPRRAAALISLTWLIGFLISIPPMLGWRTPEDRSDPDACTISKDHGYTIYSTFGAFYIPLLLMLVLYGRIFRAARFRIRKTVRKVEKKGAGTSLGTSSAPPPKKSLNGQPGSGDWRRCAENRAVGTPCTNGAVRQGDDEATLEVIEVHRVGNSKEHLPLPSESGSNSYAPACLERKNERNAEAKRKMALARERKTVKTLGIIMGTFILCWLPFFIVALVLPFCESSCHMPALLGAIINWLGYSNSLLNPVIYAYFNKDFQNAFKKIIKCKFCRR

Vasopressin V1a receptor = Vasopressin V1a receptor (Homo sapiens, UniProt P37288); type: cell membranes, Membrane; conditions: hek293; note: in other assays of this panel Not Active means under 50% inhibition at 10 µM
[6] = biological target: T3, Alpha-2C adrenergic receptor (Homo sapiens, UniProt P18825); assay: DRUGMATRIX: Adrenergic Alpha-2C radioligand binding (ligand: [3H] MK-912); type: cell membranes, Sf9, Membrane; conditions: for IC50: sf9
T3 sequence (P18825 whole entry): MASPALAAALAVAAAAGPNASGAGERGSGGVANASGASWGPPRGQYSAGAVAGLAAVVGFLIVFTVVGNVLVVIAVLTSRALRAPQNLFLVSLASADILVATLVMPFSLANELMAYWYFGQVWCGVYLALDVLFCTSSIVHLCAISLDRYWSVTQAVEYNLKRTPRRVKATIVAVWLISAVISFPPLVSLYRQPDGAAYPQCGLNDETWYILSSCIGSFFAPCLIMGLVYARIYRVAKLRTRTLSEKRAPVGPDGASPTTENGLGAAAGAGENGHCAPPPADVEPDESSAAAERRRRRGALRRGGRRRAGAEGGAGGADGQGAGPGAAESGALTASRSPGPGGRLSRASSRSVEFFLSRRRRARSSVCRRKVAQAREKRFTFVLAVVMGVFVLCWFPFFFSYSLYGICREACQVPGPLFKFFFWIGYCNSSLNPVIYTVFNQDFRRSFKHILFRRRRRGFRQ

Acetylcholinesterase = Acetylcholinesterase (Homo sapiens, UniProt P22303); assay: DRUGMATRIX: Acetylcholinesterase enzyme inhibition (substrate: acetylthiocholine); type: cell-based, HEK293; conditions: hek293; Not Active = under 50% inhibition at 10 µM
[7] = biological target: C-C chemokine receptor type 2 (Homo sapiens, UniProt P41597); type: cell membranes, CHO-K1, Membrane; conditions: cho-k1; note: in other assays of this panel Not Active means under 50% inhibition at 10 µM
[8] = biological target: Voltage-gated inwardly rectifying potassium channel KCNH2 (Homo sapiens, UniProt Q12809); conditions: hek293; note: in other assays of this panel Not Active means under 50% inhibition at 10 µM
[9] = DRUGMATRIX: Calcium Channel Type L, Dihydropyridine radioligand binding (ligand: [3H] Nitrendipine); type: cell membranes, Rattus norvegicus, Wistar, Cerebral cortex, Membrane; conditions: Not Active = under 50% inhibition at 10 µM
[10] = DRUGMATRIX: Calcium Channel Type L, Benzothiazepine radioligand binding (ligand: [3H] Diltiazem); type: cell membranes, Rattus norvegicus, Wistar, Brain, Membrane; conditions: Not Active = under 50% inhibition at 10 µM
[11] = DRUGMATRIX: GABAA, Chloride Channel, TBOB radioligand binding (ligand: [3H] TBOB); type: cell membranes, Rattus norvegicus, Wistar, Cerebral cortex, Membrane; conditions: Not Active = under 50% inhibition at 10 µM
[12] = biological target: T4, Alpha-1B adrenergic receptor (Rattus norvegicus, UniProt P15823); assay: DRUGMATRIX: Alpha-1B adrenergic receptor radioligand binding (ligand: prazosin); type: cell membranes, Wistar, Liver, Membrane; conditions: Not Active = under 50% inhibition at 10 µM
T4 sequence (P15823 whole entry): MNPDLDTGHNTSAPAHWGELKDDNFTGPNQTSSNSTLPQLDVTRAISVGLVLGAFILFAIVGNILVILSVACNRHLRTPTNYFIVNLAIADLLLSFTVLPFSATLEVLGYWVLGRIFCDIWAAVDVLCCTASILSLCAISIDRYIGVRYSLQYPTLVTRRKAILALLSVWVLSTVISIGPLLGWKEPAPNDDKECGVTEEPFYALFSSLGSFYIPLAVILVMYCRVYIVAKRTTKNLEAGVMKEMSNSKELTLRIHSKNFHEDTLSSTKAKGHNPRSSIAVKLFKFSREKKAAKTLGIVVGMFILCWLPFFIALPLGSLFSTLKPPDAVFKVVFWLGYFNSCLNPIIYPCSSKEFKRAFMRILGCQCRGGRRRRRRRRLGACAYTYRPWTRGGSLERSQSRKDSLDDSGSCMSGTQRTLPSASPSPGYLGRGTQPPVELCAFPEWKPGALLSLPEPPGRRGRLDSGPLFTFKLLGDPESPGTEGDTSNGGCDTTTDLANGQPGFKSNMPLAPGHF

Chain of Voltage-gated inwardly rectifying potassium channel KCNH2 (Q12809 whole entry): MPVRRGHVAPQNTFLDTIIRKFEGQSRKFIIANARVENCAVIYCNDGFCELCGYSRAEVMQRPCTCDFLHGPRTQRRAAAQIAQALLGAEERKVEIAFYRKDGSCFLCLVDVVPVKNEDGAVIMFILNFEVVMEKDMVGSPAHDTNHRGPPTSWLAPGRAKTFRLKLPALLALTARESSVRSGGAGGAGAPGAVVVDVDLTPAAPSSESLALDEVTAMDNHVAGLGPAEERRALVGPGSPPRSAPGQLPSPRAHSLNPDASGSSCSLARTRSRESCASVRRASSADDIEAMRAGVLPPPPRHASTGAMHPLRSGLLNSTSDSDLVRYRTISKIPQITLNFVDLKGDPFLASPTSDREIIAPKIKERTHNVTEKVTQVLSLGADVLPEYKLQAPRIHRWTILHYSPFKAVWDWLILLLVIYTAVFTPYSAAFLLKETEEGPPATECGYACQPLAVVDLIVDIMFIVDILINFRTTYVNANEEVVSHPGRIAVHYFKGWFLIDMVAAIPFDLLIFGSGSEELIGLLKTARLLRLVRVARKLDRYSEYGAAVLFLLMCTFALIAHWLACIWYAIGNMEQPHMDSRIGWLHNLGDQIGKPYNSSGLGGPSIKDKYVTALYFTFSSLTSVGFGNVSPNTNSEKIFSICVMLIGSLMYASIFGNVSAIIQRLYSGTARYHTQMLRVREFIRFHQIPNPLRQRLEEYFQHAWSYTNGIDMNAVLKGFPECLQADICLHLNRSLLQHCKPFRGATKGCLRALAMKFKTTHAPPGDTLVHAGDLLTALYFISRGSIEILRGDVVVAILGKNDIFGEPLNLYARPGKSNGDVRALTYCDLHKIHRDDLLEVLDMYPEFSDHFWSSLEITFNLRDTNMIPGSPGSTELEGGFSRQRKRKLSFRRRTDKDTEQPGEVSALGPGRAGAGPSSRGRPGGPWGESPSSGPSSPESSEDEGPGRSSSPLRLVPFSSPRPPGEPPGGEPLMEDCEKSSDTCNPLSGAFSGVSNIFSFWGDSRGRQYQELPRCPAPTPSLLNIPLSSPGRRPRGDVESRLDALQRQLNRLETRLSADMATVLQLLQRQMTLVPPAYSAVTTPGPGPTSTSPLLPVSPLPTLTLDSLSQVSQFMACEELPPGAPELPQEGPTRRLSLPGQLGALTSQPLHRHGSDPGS
Chain of Vasopressin V1a receptor (P37288 whole entry): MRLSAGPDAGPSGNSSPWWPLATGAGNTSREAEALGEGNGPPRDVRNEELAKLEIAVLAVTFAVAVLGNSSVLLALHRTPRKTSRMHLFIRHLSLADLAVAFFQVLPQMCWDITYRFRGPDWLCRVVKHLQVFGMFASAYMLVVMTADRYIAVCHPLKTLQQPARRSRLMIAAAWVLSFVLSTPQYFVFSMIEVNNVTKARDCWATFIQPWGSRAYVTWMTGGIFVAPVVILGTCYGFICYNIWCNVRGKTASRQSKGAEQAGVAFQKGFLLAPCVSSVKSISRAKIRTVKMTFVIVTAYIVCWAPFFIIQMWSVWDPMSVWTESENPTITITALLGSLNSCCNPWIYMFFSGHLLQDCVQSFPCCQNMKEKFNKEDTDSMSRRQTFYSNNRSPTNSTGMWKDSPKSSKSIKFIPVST
Chain of C-C chemokine receptor type 2 (P41597 whole entry): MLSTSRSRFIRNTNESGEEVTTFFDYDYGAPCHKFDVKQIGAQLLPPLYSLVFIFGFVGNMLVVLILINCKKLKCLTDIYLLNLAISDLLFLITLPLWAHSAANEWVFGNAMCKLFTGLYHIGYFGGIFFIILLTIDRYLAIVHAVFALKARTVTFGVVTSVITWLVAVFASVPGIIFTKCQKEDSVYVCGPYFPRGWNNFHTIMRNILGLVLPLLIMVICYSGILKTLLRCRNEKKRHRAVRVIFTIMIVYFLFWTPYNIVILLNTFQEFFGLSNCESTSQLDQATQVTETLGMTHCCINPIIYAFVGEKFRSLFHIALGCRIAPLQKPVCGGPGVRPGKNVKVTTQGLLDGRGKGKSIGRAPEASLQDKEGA
Chain of Acetylcholinesterase (P22303 whole entry): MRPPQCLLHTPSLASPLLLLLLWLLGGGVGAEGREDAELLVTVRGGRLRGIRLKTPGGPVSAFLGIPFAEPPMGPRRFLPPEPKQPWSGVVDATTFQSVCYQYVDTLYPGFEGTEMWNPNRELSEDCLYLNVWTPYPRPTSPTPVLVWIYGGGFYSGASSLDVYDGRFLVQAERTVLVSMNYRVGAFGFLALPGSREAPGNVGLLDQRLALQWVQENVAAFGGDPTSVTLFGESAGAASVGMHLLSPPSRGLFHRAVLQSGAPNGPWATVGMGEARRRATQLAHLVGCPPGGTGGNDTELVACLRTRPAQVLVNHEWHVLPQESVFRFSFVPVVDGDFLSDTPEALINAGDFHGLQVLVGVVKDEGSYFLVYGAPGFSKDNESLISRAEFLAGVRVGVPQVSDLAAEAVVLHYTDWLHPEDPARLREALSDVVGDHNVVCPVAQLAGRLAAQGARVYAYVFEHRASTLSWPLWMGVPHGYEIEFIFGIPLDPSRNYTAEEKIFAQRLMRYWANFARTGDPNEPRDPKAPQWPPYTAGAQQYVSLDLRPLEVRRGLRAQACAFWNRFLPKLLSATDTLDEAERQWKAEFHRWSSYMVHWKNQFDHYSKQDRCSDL

SMILES	IC50 (Leukotriene C4 synthase)	IC50 [1]	Ki [1]	IC50 [2]	Ki [2]	IC50 [3]	IC50 [4]	Ki [4]	IC50 (Vasopressin V1a receptor)	IC50 [6]	IC50 (Acetylcholinesterase)	IC50 [7]	IC50 [8]	Ki [8]	IC50 [9]	Ki [9]	IC50 [10]	Ki [10]	IC50 [11]	Ki [11]	further results
O=P1(NCCCl)OCCCN1CCCl (stereo not drawn) [IFOSFAMIDE]	Not Active	Not Active	Not Active	Not Active	Not Active	Not Active	Not Active	Not Active	Not Active	Not Active	Not Active	Not Active	Not Active	Not Active	Not Active	Not Active	Not Active	Not Active	Not Active	Not Active	IC50 [5]: Not Active; IC50 [12]: Not Active
CC(C)NC[C@H](O)COc1cccc2[nH]ccc12	Not Active	Not Active	Not Active	Not Active	Not Active	Not Active	Not Active	Not Active	Not Active	Not Active	Not Active	Not Active	Not Active	Not Active	Not Active	Not Active	Not Active	Not Active	Not Active	Not Active	pIC50 [5]: 7.55; pKi [5]: 7.80; IC50 [12]: Not Active
NCC(=O)O [GLYCINE]	Not Active	Not Active	Not Active	Not Active	Not Active	Not Active	Not Active	Not Active	Not Active	Not Active	Not Active	Not Active	Not Active	Not Active	Not Active	Not Active	Not Active	Not Active	Not Active	Not Active	IC50 [5]: Not Active; IC50 [12]: Not Active
CN1C[C@H](C(=O)N[C@]2(C)O[C@@]3(O)[C@@H]4CCCN4C(=O)[C@H](Cc4ccccc4)N3C2=O)C=C2c3cccc4[nH]cc(c34)C[C@H]21 [ERGOTAMINE]	Not Active	Not Active	Not Active	Not Active	Not Active	Not Active	Not Active	Not Active	Not Active	–	Not Active	Not Active	Not Active	Not Active	Not Active	Not Active	Not Active	Not Active	Not Active	Not Active	pIC50 [5]: 9.11; pKi [5]: 9.35; pIC50 ([6]; read-out: IC50): 7.92; pKi ([6]; read-out: Ki): 8.74; pIC50 ([12]; read-out: IC50): 8.09; pKi ([12]; read-out: Ki): 8.34
CCCCOC(=O)c1ccc(N)cc1 [BUTAMBEN]	Not Active	Not Active	Not Active	Not Active	Not Active	Not Active	Not Active	Not Active	Not Active	Not Active	Not Active	Not Active	Not Active	Not Active	Not Active	Not Active	Not Active	Not Active	Not Active	Not Active	IC50 [5]: Not Active; IC50 [12]: Not Active
COC(=O)[C@H](c1ccccc1Cl)N1CCc2sccc2C1 [CLOPIDOGREL]	Not Active	Not Active	Not Active	Not Active	Not Active	Not Active	Not Active	Not Active	Not Active	Not Active	Not Active	Not Active	Not Active	Not Active	Not Active	Not Active	Not Active	Not Active	Not Active	Not Active	IC50 [5]: Not Active; IC50 [12]: Not Active
CC1COc2c(N3CCN(C)CC3)c(F)cc3c(=O)c(C(=O)O)cn1c23 (stereo not drawn) [OFLOXACIN]	Not Active	Not Active	Not Active	Not Active	Not Active	Not Active	Not Active	Not Active	Not Active	Not Active	Not Active	Not Active	Not Active	Not Active	Not Active	Not Active	Not Active	Not Active	Not Active	Not Active	IC50 [5]: Not Active; IC50 [12]: Not Active
